Source: ChEMBL document CHEMBL1201862, “PubChem BioAssay data set” (2004)
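Test compounds were applied to cells in 96-well plates for 48 hours at 5 doses. GI50: concentration for 50% inhibition of growth.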 The source made the active and inactive calls. Cut-off read from the data, not from the text of the source: active = GI50 up to about 1.1 µM and inactive = higher.

Assays:
Test in all cases: NCI-60 cell line screen, 48 h
[1] = tested on: ACHN
[2] = tested on: CAKI-1
[3] = tested on: HCC 2998
[4] = tested on: HCT-116
[5] = tested on: HL-60
[6] = tested on: HOP-92
[7] = tested on: LOX IMVI
[8] = tested on: M14
[9] = tested on: NCI-H226
[10] = tested on: RPMI-8226
[11] = tested on: SF-268
[12] = tested on: SK-MEL-2
[13] = tested on: SK-OV-3
[14] = tested on: SN12C
[15] = tested on: SNB-75
[16] = tested on: SR
[17] = tested on: U-251
[18] = tested on: UACC-257
[19] = tested on: UO-31
[20] = tested on: DU-145

CCCCCCNC(=O)CCN(C(=O)O)S(=O)(=O)c1ccc(NC(=O)c2ccccc2)cc1
GI50 [1]: > 100 µM (inactive)
GI50 [2]: > 100 µM (inactive)
GI50 [3]: > 100 µM (inactive)
GI50 [4]: 39 µM (inactive)
GI50 [5]: 35.9 µM (inactive)
GI50 [6]: > 100 µM (inactive)
GI50 [7]: 25.1 µM (inactive)
GI50 [8]: > 100 µM (inactive)
GI50 [9]: > 100 µM (inactive)
GI50 [10]: 26.4 µM (inactive)
GI50 [11]: > 78.9 µM (inactive)
GI50 [12]: > 100 µM (inactive)
GI50 [13]: > 100 µM (inactive)
GI50 [14]: > 100 µM (inactive)
GI50 [15]: > 100 µM (inactive)
GI50 [16]: 19.3 µM (inactive)
GI50 [17]: 20 µM (inactive)
GI50 [18]: > 48.9 µM (inactive)
GI50 [19]: > 100 µM (inactive)

CP1(=O)CCCCC1
GI50 [1]: > 100 µM (inactive)
GI50 [2]: > 100 µM (inactive)
GI50 [3]: > 100 µM (inactive)
GI50 [4]: > 100 µM (inactive)
GI50 [5]: > 100 µM (inactive)
GI50 [6]: > 100 µM (inactive)
GI50 [7]: > 100 µM (inactive)
GI50 [8]: > 100 µM (inactive)
GI50 [9]: > 100 µM (inactive)
GI50 [10]: > 100 µM (inactive)
GI50 [11]: > 100 µM (inactive)
GI50 [12]: > 100 µM (inactive)
GI50 [13]: > 100 µM (inactive)
GI50 [14]: > 100 µM (inactive)
GI50 [15]: > 100 µM (inactive)
GI50 [16]: > 100 µM (inactive)
GI50 [17]: > 100 µM (inactive)
GI50 [18]: > 100 µM (inactive)
GI50 [19]: > 100 µM (inactive)

CCC/C(C)=N/NC(=S)SC.CCC/C(C)=N/NC(=S)SC.[Zn+2]
GI50 [1]: 9.08 µM (inactive)
GI50 [2]: 13.7 µM (inactive)
GI50 [20]: 12 µM (inactive)
GI50 [4]: 10.4 µM (inactive)
GI50 [7]: 1.48 µM (inactive)
GI50 [8]: 11.1 µM (inactive)
GI50 [9]: 12.6 µM (inactive)
GI50 [10]: 1.98 µM (inactive)
GI50 [11]: 14.1 µM (inactive)
GI50 [12]: 13.9 µM (inactive)
GI50 [13]: 16.2 µM (inactive)
GI50 [14]: 2.94 µM (inactive)
GI50 [15]: 18.7 µM (inactive)
GI50 [17]: 1.84 µM (inactive)
GI50 [18]: 7.46 µM (inactive)
GI50 [19]: 11 µM (inactive)

Clc1ccc(CCN2CCOCC2)c(Cl)c1
GI50 [1]: > 100 µM (inactive)
GI50 [2]: > 100 µM (inactive)
GI50 [3]: > 100 µM (inactive)
GI50 [4]: > 100 µM (inactive)
GI50 [5]: > 100 µM (inactive)
GI50 [6]: > 100 µM (inactive)
GI50 [8]: > 100 µM (inactive)
GI50 [10]: > 100 µM (inactive)
GI50 [11]: > 100 µM (inactive)
GI50 [12]: > 100 µM (inactive)
GI50 [13]: > 100 µM (inactive)
GI50 [14]: > 100 µM (inactive)
GI50 [15]: 17.6 µM (inactive)
GI50 [16]: > 100 µM (inactive)
GI50 [17]: > 100 µM (inactive)
GI50 [18]: > 100 µM (inactive)
GI50 [19]: > 100 µM (inactive)

Cc1ccc(CCNC(=S)SCC(NC(=O)CCC(N)C(=O)O)C(=O)NCC(=O)O)cc1 (configuration not stated)
GI50 [1]: 2.02 µM (inactive)
GI50 [2]: 1.41 µM (inactive)
GI50 [3]: 2.04 µM (inactive)
GI50 [4]: 2.17 µM (inactive)
GI50 [5]: 0.51 µM (active)
GI50 [6]: 1.17 µM (inactive)
GI50 [7]: 0.388 µM (active)
GI50 [8]: 1.22 µM (inactive)
GI50 [9]: 2.26 µM (inactive)
GI50 [10]: 0.288 µM (active)
GI50 [11]: 2.7 µM (inactive)
GI50 [12]: 0.385 µM (active)
GI50 [13]: 7.4 µM (inactive)
GI50 [14]: 1.76 µM (inactive)
GI50 [15]: 0.435 µM (active)
GI50 [16]: 2.13 µM (inactive)
GI50 [17]: 1.87 µM (inactive)
GI50 [18]: 1.99 µM (inactive)
GI50 [19]: 1.12 µM (inactive)

CN(C)CC1CC/C(=C\c2ccc(Cl)c(Cl)c2)C1=O (configuration not stated)
GI50 [1]: > 45.1 µM (inactive)
GI50 [2]: 14.8 µM (inactive)
GI50 [3]: > 40.8 µM (inactive)
GI50 [4]: 24.3 µM (inactive)
GI50 [5]: 0.586 µM (active)
GI50 [6]: 17.7 µM (inactive)
GI50 [7]: 13.5 µM (inactive)
GI50 [8]: 18.9 µM (inactive)
GI50 [9]: > 100 µM (inactive)
GI50 [10]: 1.95 µM (inactive)
GI50 [11]: 31.6 µM (inactive)
GI50 [12]: > 45.1 µM (inactive)
GI50 [13]: > 100 µM (inactive)
GI50 [14]: > 38.9 µM (inactive)
GI50 [15]: > 41.7 µM (inactive)
GI50 [16]: 2.2 µM (inactive)
GI50 [17]: > 42.3 µM (inactive)
GI50 [18]: 24.7 µM (inactive)
GI50 [19]: > 40.6 µM (inactive)

COCOCCC#CCO
GI50 [1]: > 100 µM (inactive)
GI50 [3]: > 100 µM (inactive)
GI50 [4]: 88.9 µM (inactive)
GI50 [5]: > 100 µM (inactive)
GI50 [6]: > 100 µM (inactive)
GI50 [7]: > 100 µM (inactive)
GI50 [8]: > 100 µM (inactive)
GI50 [10]: > 100 µM (inactive)
GI50 [11]: > 100 µM (inactive)
GI50 [12]: > 100 µM (inactive)
GI50 [13]: > 100 µM (inactive)
GI50 [14]: > 100 µM (inactive)
GI50 [15]: > 100 µM (inactive)
GI50 [16]: 83.8 µM (inactive)
GI50 [17]: > 100 µM (inactive)
GI50 [18]: > 100 µM (inactive)
GI50 [19]: > 100 µM (inactive)

O=C(Nc1ccn(C2CC(O)C(CO)O2)c(=O)n1)c1ccccc1 (configuration not stated)
GI50 [1]: > 100 µM (inactive)
GI50 [2]: > 100 µM (inactive)
GI50 [20]: > 100 µM (inactive)
GI50 [4]: > 100 µM (inactive)
GI50 [5]: > 100 µM (inactive)
GI50 [7]: > 100 µM (inactive)
GI50 [8]: > 100 µM (inactive)
GI50 [9]: > 100 µM (inactive)
GI50 [10]: > 100 µM (inactive)
GI50 [11]: > 100 µM (inactive)
GI50 [12]: > 100 µM (inactive)
GI50 [13]: > 100 µM (inactive)
GI50 [14]: > 100 µM (inactive)
GI50 [15]: > 100 µM (inactive)
GI50 [17]: > 100 µM (inactive)
GI50 [18]: > 100 µM (inactive)
